Test results reported in patent US10766869B2, “Triazoles for the treatment of demyelinating dieases” (Vertex Pharmaceuticals Incorporated, priority 2015, dated 2020).
Where two headings read alike, the source gives them in different places.

System: primary rat mixed cortical cells
Assay: In vitro myelination assay (MBP positive myelin strands, fold myelin pixels above background)
Assay type: cell-based
Conditions: Rattus norvegicus; for fold induction at 1 µM: 1.0 μM compound; for fold induction at 10 µM: 10.0 μM compound
Summary of the method: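 Read-out is total MBP-positive myelin strand pixels per well, detected by custom ridge-tracing software and reported as fold over untreated baseline. Primary P1 rat mixed cortical cells received compound (1.0 or 10.0 μM) for 14 days, with medium half-replaced on days 6 and 10. Standard deviation was taken across all replicates.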

[1] = relative to baseline of no added compound, read-out: Fold myelin pixels above background
[2] = read-out: Fold myelin pixels above background relative to baseline of no added compound
[3] = relative to baseline of no added compound, read-out: Fold myelin pixels above background, 1.0 μM
[4] = relative to baseline of no added compound, read-out: Fold myelin pixels above background, 10.0 μM

Row | Structure (SMILES) | fold induction at 1 µM [1] | fold induction at 10 µM [1] | other results
1 | Cc1cc(Nc2ncn(-c3cc(F)cc(F)c3)n2)cc(C2CCCNC2)c1 (centres unmarked) [Compound 429, 1-(3,5-difluorophenyl)-N-[3-methyl-5-(3-piperidyl)phenyl]-1,2,4-triazol-3-amine] | 1000 to 10000 | ≤ 1 | –
2 | CN1CCN(c2cc(N3CCN(C4COC4)CC3)cc(Nc3ncn(-c4cc(F)cc(F)c4)n3)n2)CC1 [Compound 650, N-[1-(3,5-difluorophenyl)-1,2,4-triazol-3-yl]-6-(4-methylpiperazin-1-yl)-4-[4-(oxetan-3-yl)piperazin-1-yl]pyridin-2-amine] | 10 to 100 | 1 to 10 | –
3 | [2H]C1(N2C([2H])([2H])C([2H])([2H])N(c3cc(C)cc(Nc4ncn(-c5cc(F)cc(F)c5)n4)c3)C([2H])([2H])C2([2H])[2H])COC1 [Compound 997, 1-(3,5-difluorophenyl)-N-[3-methyl-5-[2,2,3,3,5,5,6,6-octadeuterio-4-(3-deuteriooxetan-3-yl)piperazin-1-yl]phenyl]-1,2,4-triazol-3-amine] | – | – | fold induction at 1 µM [2]: 100 to 1000; fold induction at 10 µM [2]: ≤ 1
4 | [2H]C1([2H])N(C(=O)C2CC2)C([2H])([2H])C([2H])([2H])N(c2cc(C)cc(Nc3ncn(-c4cc(F)cc(F)c4)n3)c2)C1([2H])[2H] [Compound 961, cyclopropyl-[2,2,3,3,5,5,6,6-octadeuterio-4-[3-[[1-(3,5-difluorophenyl)-1,2,4-triazol-3-yl]amino]-5-methyl-phenyl]piperazin-1-yl]methanone] | – | – | fold induction at 1 µM [2]: 1 to 10; fold induction at 10 µM [2]: 1 to 10
5 | CCCc1cc(Nc2ncn(-c3cnccn3)n2)cc(N2CCN(C3COC3)CC2)c1 [Compound 236, N-[3-[4-(oxetan-3-yl)piperazin-1-yl]-5-propyl-phenyl]-1-pyrazin-2-yl-1,2,4-triazol-3-amine] | – | – | fold induction at 1 µM [3]: ≤ 1; fold induction at 10 µM [4]: ≤ 1
6 | Cc1cc(Nc2ncn(-c3cc(F)cc(F)c3)n2)nc(N2CCOCC2)c1 [Compound 560, N-[1-(3,5-difluorophenyl)-1,2,4-triazol-3-yl]-4-methyl-6-morpholino-pyridin-2-amine] | 10 to 100 | 100 to 1000 | –
7 | Cc1cc(Nc2ncn(-c3ccc(F)c(F)c3)n2)cc(OCC2CCOCC2)c1 [Compound 627, 1-(3,4-difluorophenyl)-N-[3-methyl-5-(tetrahydropyran-4-ylmethoxy)phenyl]-1,2,4-triazol-3-amine] | 1 to 10 | 10 to 100 | –
8 | Cc1cc(Nc2ncn(-c3cc(F)cc(F)c3)n2)cc(C2(F)CCN(C3COC3)CC2)c1 [Compound 515, 1-(3,5-difluorophenyl)-N-[3-[4-fluoro-1-(oxetan-3-yl)-4-piperidyl]-5-methyl-phenyl]-1,2,4-triazol-3-amine] | ≤ 1 | 1 to 10 | –
9 | Cc1cc(Nc2ncn(-c3cc(F)cc(F)c3)n2)cc(N2CCN(C3CCOCC3)CC2)c1 [Compound 243, 1-(3,5-difluorophenyl)-N-[3-methyl-5-(4-tetrahydropyran-4-ylpiperazin-1-yl)phenyl]-1,2,4-triazol-3-amine] | – | – | fold induction at 1 µM [3]: 100 to 1000; fold induction at 10 µM [4]: ≤ 1
10 | Cc1cc(Nc2ncn(-c3cc(F)cc(F)c3)n2)cc(N2CCN(CCCN(C)C)CC2)c1 [Compound 747, 1-(3,5-difluorophenyl)-N-[3-[4-[3-(dimethylamino)propyl]piperazin-1-yl]-5-methyl-phenyl]-1,2,4-triazol-3-amine] | ≤ 1 | ≤ 1 | –
11 | Cc1cc(Nc2ncn(-c3cccc(C(F)F)c3)n2)nc(N2CCN(C3COC3)CC2)c1 [Compound 848, N-[1-[3-(difluoromethyl)phenyl]-1,2,4-triazol-3-yl]-4-methyl-6-[4-(oxetan-3-yl)piperazin-1-yl]pyridin-2-amine] | – | – | fold induction at 1 µM [2]: 10 to 100; fold induction at 10 µM [2]: 10 to 100
12 | Cc1cc(Nc2ncn(-c3cc(F)cc(F)c3)n2)cc(O[C@H]2CCN(C3COC3)C2)c1 [Compound 304, 1-(3,5-difluorophenyl)-N-[3-methyl-5-[(3S)-1-(oxetan-3-yl)pyrrolidin-3-yl]oxy-phenyl]-1,2,4-triazol-3-amine] | – | – | fold induction at 1 µM [3]: 100 to 1000; fold induction at 10 µM [4]: ≤ 1
13 | Cc1cc(Nc2ncn(-c3cc(F)cc(F)c3)n2)nc(N2CCN(C3(C)COC3)CC2)c1 [Compound 580, N-[1-(3,5-difluorophenyl)-1,2,4-triazol-3-yl]-4-methyl-6-[4-(3-methyloxetan-3-yl)piperazin-1-yl]pyridin-2-amine] | ≤ 1 | 1 to 10 | –
14 | Cc1cc(Nc2ncn(-c3ccccc3)n2)cc(C2COC2)c1 [Compound 363, N-[3-methyl-5-(oxetan-3-yl)phenyl]-1-phenyl-1,2,4-triazol-3-amine] | – | – | fold induction at 1 µM [3]: 1000 to 10000; fold induction at 10 µM [4]: 100 to 1000
15 | Cc1cc(Nc2ncn(-c3cc(F)cc(F)c3)n2)cc(N2CC(N3C[C@@H](C)O[C@@H](C)C3)C2)c1 [Compound 618, 1-(3,5-difluorophenyl)-N-[3-[3-[(2R,6S)-2,6-dimethylmorpholin-4-yl]azetidin-1-yl]-5-methyl-phenyl]-1,2,4-triazol-3-amine] | 10 to 100 | 10 to 100 | –
16 | COc1cc(Nc2ncn(-c3ccc(F)c(F)c3)n2)cc(N2CCN(C3COC3)CC2)c1 [Compound 183, 1-(3,4-difluorophenyl)-N-[3-methoxy-5-[4-(oxetan-3-yl)piperazin-1-yl]phenyl]-1,2,4-triazol-3-amine] | – | – | fold induction at 1 µM [3]: 100 to 1000; fold induction at 10 µM [4]: 10 to 100
17 | OC1(c2cc(F)cc(Nc3ncn(-c4cc(F)cc(F)c4)n3)c2)COC1 [Compound 775, 3-[3-[[1-(3,5-difluorophenyl)-1,2,4-triazol-3-yl]amino]-5-fluoro-phenyl]oxetan-3-ol] | 1 to 10 | 10 to 100 | –
18 | Cc1cc(N2CC(N3CCOCC3)C2)cc(Nc2ncn(-c3cc(F)cc(F)c3)n2)c1C [Compound 739, 1-(3,5-difluorophenyl)-N-[2,3-dimethyl-5-(3-morpholinoazetidin-1-yl)phenyl]-1,2,4-triazol-3-amine] | 10 to 100 | 10 to 100 | –
19 | Cc1cc(Nc2ncn(-c3cccc(F)n3)n2)cc(N2CCN(C3COC3)CC2)c1 [Compound 154, 1-(6-fluoro-2-pyridyl)-N-[3-methyl-5-[4-(oxetan-3-yl)piperazin-1-yl]phenyl]-1,2,4-triazol-3-amine] | – | – | fold induction at 1 µM [3]: 100 to 1000; fold induction at 10 µM [4]: 100 to 1000
20 | Cc1cc(Nc2ncn(-c3ccc(F)c(C)c3)n2)cc(N2CCN(C3COC3)CC2)c1 [Compound 780, 1-(4-fluoro-3-methyl-phenyl)-N-[3-methyl-5-[4-(oxetan-3-yl)piperazin-1-yl]phenyl]-1,2,4-triazol-3-amine] | 1 to 10 | 1 to 10 | –
21 | Cc1cc(Nc2ncn(-c3cccc(C(F)(F)F)c3)n2)cc(N2CC(N3CCOCC3)C2)c1 [Compound 651, N-[3-methyl-5-(3-morpholinoazetidin-1-yl)phenyl]-1-[3-(trifluoromethyl)phenyl]-1,2,4-triazol-3-amine] | 10 to 100 | 1 to 10 | –
22 | Cc1cc(Nc2ncn(-c3cccnc3)n2)c(F)c(N2CCN(C3COC3)CC2)c1 [Compound 1022, N-[2-fluoro-5-methyl-3-[4-(oxetan-3-yl)piperazin-1-yl]phenyl]-1-(3-pyridyl)-1,2,4-triazol-3-amine] | – | – | fold induction at 1 µM [2]: 1 to 10; fold induction at 10 µM [2]: 10 to 100
